The numbers were not newly measured in US20010009917A1, “Methods and compositions for treating asthma, atherosclerosis and inflammatory diseases using optically pure (-zileuton” (priority 1993, published 2001), which cites them from elsewhere.

For data set [1], the target named is T1, sheep seminal vesicle cyclooxygenase (Ovis aries, UniProt P05979).
T1 construct: incubations with sheep seminal vesicle gland microsomes (2 mg/mL); from tissue; host or cells: sheep seminal vesicle gland microsomes
T1 sequence (P05979 25-600): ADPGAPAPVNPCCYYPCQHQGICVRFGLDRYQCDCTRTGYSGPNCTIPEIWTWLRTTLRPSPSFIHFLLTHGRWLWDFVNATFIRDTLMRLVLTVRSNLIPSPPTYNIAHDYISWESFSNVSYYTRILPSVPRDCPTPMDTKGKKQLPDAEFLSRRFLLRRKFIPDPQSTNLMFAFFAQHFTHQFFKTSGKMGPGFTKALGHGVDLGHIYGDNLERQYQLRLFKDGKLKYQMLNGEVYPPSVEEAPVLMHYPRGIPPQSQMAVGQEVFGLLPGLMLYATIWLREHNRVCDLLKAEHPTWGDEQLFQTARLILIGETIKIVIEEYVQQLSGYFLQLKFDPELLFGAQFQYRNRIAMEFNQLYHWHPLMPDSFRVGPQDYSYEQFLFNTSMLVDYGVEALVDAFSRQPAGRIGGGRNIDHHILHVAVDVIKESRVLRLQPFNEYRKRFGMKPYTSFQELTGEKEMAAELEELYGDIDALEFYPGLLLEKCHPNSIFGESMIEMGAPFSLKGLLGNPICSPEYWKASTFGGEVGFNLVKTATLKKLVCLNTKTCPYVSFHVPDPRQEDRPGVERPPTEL

Data set [2] addresses T2, human platelet 12-lipoxygenase (Homo sapiens, UniProt P18054).
T2 construct: the supernatant containing the 12-lipoxygenase activity stored frozen until used; from tissue; host or cells: human platelets, sonicated lysate supernatant
T2 sequence (P18054 1-663): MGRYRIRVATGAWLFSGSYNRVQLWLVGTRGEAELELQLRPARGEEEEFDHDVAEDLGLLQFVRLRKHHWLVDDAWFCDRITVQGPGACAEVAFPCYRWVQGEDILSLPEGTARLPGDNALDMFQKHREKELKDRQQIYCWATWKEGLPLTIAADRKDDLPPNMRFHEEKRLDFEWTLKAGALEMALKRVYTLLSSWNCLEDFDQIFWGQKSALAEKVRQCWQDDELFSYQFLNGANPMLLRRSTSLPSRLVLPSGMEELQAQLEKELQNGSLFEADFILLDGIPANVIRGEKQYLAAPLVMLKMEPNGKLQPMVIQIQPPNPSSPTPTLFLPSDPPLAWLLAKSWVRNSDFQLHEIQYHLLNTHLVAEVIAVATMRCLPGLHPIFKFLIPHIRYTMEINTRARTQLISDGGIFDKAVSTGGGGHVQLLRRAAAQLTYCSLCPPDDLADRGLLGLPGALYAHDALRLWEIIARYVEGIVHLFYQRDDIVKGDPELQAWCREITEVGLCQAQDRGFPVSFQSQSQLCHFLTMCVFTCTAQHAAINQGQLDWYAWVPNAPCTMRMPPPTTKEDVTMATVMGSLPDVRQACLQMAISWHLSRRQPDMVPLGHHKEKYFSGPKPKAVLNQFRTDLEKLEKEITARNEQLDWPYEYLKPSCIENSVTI

In another data set the test system is LTB4. The conditions noted are these: human volunteers, 800 mg p.o. twice per day for four weeks.
The conditions of data set [3]: dog liver microsomes.

Consider `CC(c1cc2ccccc2s1)N(O)C(N)=O` (racemic) [racemic zileuton, N-(1-benzo[b]thien-2-ylethyl)-N-hydroxyurea], for which the “inhibitory effect on sheep seminal vesicle cyclooxygenase” value in data set [1] is listed as “little inhibitory effect”. Besides, the “patients reporting an adverse event during the four week trial” value (four week trial) was “One hundred”. Further, the “improvement in symptoms of rheumatoid arthritis” value (human volunteers, 800 mg p.o. twice per day for four weeks) is “statistically significant improvement”. In addition, in data set [2], the “inhibitory effect on human platelet 12-lipoxygenase” value is “little inhibitory effect”. Besides, in the data set on LTB4, the “decreases in LTB4” value is on record as 75 to 85%.
With `C[C@H](c1cc2ccccc2s1)N(O)C(N)=O` [(+)-zileuton, (+) isomer of N-(1-benzo[b]thien-2-ylethyl)-N-hydroxyurea], in data set [3], the “effect on glucuronidation of S-(−)-zileuton” value is given as “enhancement of that reaction”.
Regarding `C[C@@H](c1cc2ccccc2s1)N(O)C(N)=O` [S-(−)-zileuton], the glucuronidation result in data set [3] is recorded as “selective glucuronidation”.
For `CC(C)NC[C@H](O)COc1cccc2ccccc12` [propranolol], in the data set on beta-adrenergic, the “potency relative to the D-enantiomer” value is reported as 100 times.
